Experiments:
[1] = biological target: Histone deacetylase 1 (Homo sapiens, UniProt Q13547); test: Inhibition of recombinant full length human HDAC-1 expressed in baculovirus expression system using acetyl-Gly-Ala-Lys(acetyl)-AMC as substrate after 2 hrs by fluorescence microplate reader analysis
[2] = biological target: T1, Protein deacetylase HDAC6 (Homo sapiens, UniProt Q9UBN7); test: Inhibition of recombinant full length human HDAC-6 expressed in baculovirus expression system using acetyl-Gly-Ala-Lys(acetyl)-AMC as substrate after 2 hrs by fluorescence microplate reader analysis
T1 sequence (Q9UBN7 whole entry): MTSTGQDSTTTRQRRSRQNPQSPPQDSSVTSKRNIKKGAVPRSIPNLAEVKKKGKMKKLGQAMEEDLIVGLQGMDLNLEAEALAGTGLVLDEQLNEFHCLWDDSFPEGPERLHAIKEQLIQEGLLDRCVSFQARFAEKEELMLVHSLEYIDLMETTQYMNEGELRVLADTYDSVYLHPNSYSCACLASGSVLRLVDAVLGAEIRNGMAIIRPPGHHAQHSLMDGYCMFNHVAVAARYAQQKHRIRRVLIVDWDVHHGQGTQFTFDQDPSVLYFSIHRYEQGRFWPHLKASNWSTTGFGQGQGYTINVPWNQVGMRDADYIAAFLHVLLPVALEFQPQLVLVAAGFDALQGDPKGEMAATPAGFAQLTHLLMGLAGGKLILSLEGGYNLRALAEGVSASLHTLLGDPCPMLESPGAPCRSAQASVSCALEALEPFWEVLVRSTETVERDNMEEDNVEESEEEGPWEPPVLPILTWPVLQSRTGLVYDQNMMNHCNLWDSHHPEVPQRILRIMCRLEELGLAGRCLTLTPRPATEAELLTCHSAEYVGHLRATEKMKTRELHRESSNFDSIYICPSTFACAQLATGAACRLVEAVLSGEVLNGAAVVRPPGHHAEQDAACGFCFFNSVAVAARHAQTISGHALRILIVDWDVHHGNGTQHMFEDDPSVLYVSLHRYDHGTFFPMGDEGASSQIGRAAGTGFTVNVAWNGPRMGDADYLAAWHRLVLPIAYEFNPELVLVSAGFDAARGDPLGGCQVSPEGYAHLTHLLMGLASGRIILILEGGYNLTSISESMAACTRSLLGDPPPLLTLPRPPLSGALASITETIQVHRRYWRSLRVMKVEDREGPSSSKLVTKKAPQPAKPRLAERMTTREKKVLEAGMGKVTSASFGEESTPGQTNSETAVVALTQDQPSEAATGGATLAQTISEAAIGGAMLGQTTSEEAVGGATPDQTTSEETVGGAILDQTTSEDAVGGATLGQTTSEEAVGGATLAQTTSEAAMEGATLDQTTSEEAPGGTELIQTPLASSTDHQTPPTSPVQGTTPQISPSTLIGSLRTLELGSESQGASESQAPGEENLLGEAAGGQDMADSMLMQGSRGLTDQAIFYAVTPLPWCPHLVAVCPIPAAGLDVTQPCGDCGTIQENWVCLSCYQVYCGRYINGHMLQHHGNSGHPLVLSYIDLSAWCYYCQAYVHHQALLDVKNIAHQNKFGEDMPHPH

Chain of Histone deacetylase 1 (Q13547 whole entry): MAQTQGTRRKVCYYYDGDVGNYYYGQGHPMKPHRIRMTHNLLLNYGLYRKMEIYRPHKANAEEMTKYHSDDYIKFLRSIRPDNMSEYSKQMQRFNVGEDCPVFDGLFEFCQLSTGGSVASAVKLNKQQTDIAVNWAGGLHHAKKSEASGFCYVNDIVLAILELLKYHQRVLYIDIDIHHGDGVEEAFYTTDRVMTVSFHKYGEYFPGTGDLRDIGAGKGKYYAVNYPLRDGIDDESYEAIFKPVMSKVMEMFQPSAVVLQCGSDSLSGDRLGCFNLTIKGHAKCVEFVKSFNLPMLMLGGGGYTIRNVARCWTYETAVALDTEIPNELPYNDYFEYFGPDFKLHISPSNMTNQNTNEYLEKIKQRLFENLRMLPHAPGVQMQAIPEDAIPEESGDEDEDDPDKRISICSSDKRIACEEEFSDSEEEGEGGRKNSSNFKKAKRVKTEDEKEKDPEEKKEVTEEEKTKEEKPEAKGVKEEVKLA

With `C[C@H](CN(C)Cc1ccccc1)NC(=O)c1ccc(-c2noc(C(F)(F)F)n2)nc1` the IC50 [1] was > 10 µM and the IC50 [2] was > 10 µM.
With `CCN(CC)C[C@@H](C)NC(=O)c1ccc(-c2noc(C(F)(F)F)n2)nc1` the IC50 [1] was > 10 µM and the IC50 [2] was > 10 µM.

From ChEMBL document CHEMBL2413070, “Histone Deacetylase 4 (HDAC4) Inhibitors: A Promising Treatment for Huntington's Disease” (ACS Med Chem Lett, 2013)
